Literature values as cited in PMC6547379 (The European respiratory journal, 2018).

System: CF patients
Details: ref [34]

Cc1c(-c2ccnn2C)cc(C(=O)NCc2ccc(S(C)(=O)=O)cn2)c(=O)n1-c1cccc(C(F)(F)F)c1 [AZD9668]
effect on inflammation / lung function in CF patients: no effect on inflammation or lung function
